The record followed here is patent US20240108611A1, “COMPOSITION FOR PREVENTING OR TREATING METABOLIC DISEASES, CONTAINING TORSEMIDE AND CROMOLYN” (ONCOCROSS CO., LTD., priority 2021, published 2024).

Assay [1] relates to nonalcoholic steatohepatitis (NASH) animal model. In words: Body weight change in nonalcoholic steatohepatitis (NASH) animal model, high fat diet. Type of assay: in vivo, ICR mice. The note with it: high-fat diet mice; 10 mg/kg each drug i.p. three times a week for 6 weeks.
A further assay concerns NASH animal model. In words: Triglycerides in liver tissue by Oil Red O staining in NASH animal model. The settings on record: HFD mice after 13 weeks of diet and drug administration.

As to `O=C(O)c1cc(=O)c2c(OCC(O)COc3cccc4oc(C(=O)O)cc(=O)c34)cccc2o1` [cromolyn], the “change in body weight compared to high-fat diet control group (HFD PBS)” value in assay [1] is “no significant change”. Moreover, the “triglycerides in liver tissue (Oil Red O staining) versus HFD PBS group” value in the assay with NASH animal model is on record as “relatively decreased”.
